Data taken from the NIST ThermoML archive (doi:10.1016/j.fluid.2010.10.028).

Experiment: xn = mol fraction of the nth substance listed
Conditions: Liquid, Vibrating tube method

CC(C)=O [acetone] + CCCCCCC
Conditions | mass density [kg/m3]
357.55 K, 24990 kPa, x1 = 0.4 | 726.84
357.55 K, 24990 kPa, x1 = 0.8992 | 726.84
357.55 K, 29870 kPa, x1 = 0.492 | 686.24
357.55 K, 29870 kPa, x1 = 0.611 | 695.58
357.55 K, 29970 kPa, x1 = 0.4 | 732.49
357.55 K, 29970 kPa, x1 = 0.8992 | 732.49
357.55 K, 34840 kPa, x1 = 0.492 | 691.34
357.55 K, 34860 kPa, x1 = 0.611 | 700.78
357.55 K, 34960 kPa, x1 = 0.4 | 737.79
357.55 K, 34960 kPa, x1 = 0.8992 | 737.79
357.55 K, 39860 kPa, x1 = 0.492 | 696.15
357.55 K, 39860 kPa, x1 = 0.611 | 705.69
357.55 K, 39960 kPa, x1 = 0.4 | 742.81
357.55 K, 39960 kPa, x1 = 0.8992 | 742.81
357.55 K, 44840 kPa, x1 = 0.492 | 700.71
357.55 K, 44850 kPa, x1 = 0.611 | 710.3
357.55 K, 44950 kPa, x1 = 0.4 | 747.57
357.55 K, 44950 kPa, x1 = 0.8992 | 747.57
357.55 K, 49840 kPa, x1 = 0.611 | 714.7
357.55 K, 49940 kPa, x1 = 0.4 | 752.09
357.55 K, 49940 kPa, x1 = 0.8992 | 752.09
357.55 K, 54850 kPa, x1 = 0.492 | 709.15
357.55 K, 54940 kPa, x1 = 0.4 | 756.43
357.55 K, 54940 kPa, x1 = 0.611 | 718.97
357.55 K, 54940 kPa, x1 = 0.8992 | 756.43
357.55 K, 59860 kPa, x1 = 0.492 | 713.06
357.55 K, 59930 kPa, x1 = 0.4 | 760.56
357.55 K, 59930 kPa, x1 = 0.611 | 722.96
357.55 K, 59930 kPa, x1 = 0.8992 | 760.56
357.55 K, 64830 kPa, x1 = 0.492 | 716.77
357.55 K, 64890 kPa, x1 = 0.4 | 764.53
357.55 K, 64890 kPa, x1 = 0.8992 | 764.53
357.55 K, 69890 kPa, x1 = 0.4 | 768.36
357.55 K, 69890 kPa, x1 = 0.8992 | 768.36
357.55 K, 69910 kPa, x1 = 0.611 | 730.41
357.55 K, 69930 kPa, x1 = 0.492 | 720.43
357.55 K, 74860 kPa, x1 = 0.4 | 772.01
357.55 K, 74860 kPa, x1 = 0.8992 | 772.01
357.55 K, 74890 kPa, x1 = 0.611 | 733.9
357.55 K, 74910 kPa, x1 = 0.492 | 723.89
357.55 K, 79780 kPa, x1 = 0.7024 | 747.09
357.55 K, 79880 kPa, x1 = 0.611 | 737.26
357.55 K, 84830 kPa, x1 = 0.4 | 778.99
357.55 K, 84830 kPa, x1 = 0.8992 | 778.99
357.55 K, 89740 kPa, x1 = 0.7024 | 753.59
357.55 K, 89810 kPa, x1 = 0.4 | 782.3
357.55 K, 89810 kPa, x1 = 0.8992 | 782.3
357.55 K, 89830 kPa, x1 = 0.611 | 743.64
357.55 K, 94820 kPa, x1 = 0.611 | 746.67
357.55 K, 94860 kPa, x1 = 0.492 | 736.47
357.55 K, 99800 kPa, x1 = 0.611 | 749.61
357.55 K, 99820 kPa, x1 = 0.7024 | 759.74
357.55 K, 104700 kPa, x1 = 0.4 | 791.65
357.55 K, 104700 kPa, x1 = 0.8992 | 791.65
357.55 K, 104820 kPa, x1 = 0.7024 | 762.65
357.55 K, 109810 kPa, x1 = 0.7024 | 765.49
357.55 K, 114810 kPa, x1 = 0.7024 | 768.22
357.55 K, 119810 kPa, x1 = 0.7024 | 770.9
357.55 K, 124810 kPa, x1 = 0.7024 | 773.52
357.55 K, 129800 kPa, x1 = 0.7024 | 776.06
357.56 K, 1060 kPa, x1 = 0.801 | 677.14
357.56 K, 4870 kPa, x1 = 0.801 | 683.82
357.56 K, 9840 kPa, x1 = 0.801 | 691.71
357.56 K, 14860 kPa, x1 = 0.801 | 698.89
357.56 K, 34850 kPa, x1 = 0.801 | 722.54
357.56 K, 49850 kPa, x1 = 0.492 | 705.01
357.56 K, 59820 kPa, x1 = 0.801 | 745.17
357.56 K, 64910 kPa, x1 = 0.611 | 726.75
357.56 K, 64920 kPa, x1 = 0.801 | 749.17
357.56 K, 69910 kPa, x1 = 0.801 | 752.93
357.56 K, 74880 kPa, x1 = 0.801 | 756.52
357.56 K, 79850 kPa, x1 = 0.4 | 775.55
357.56 K, 79850 kPa, x1 = 0.8992 | 775.55
357.56 K, 79900 kPa, x1 = 0.492 | 727.2
357.56 K, 84860 kPa, x1 = 0.611 | 740.5
357.56 K, 84870 kPa, x1 = 0.801 | 763.37
357.56 K, 84890 kPa, x1 = 0.492 | 730.4
357.56 K, 89840 kPa, x1 = 0.801 | 766.6
357.56 K, 89880 kPa, x1 = 0.492 | 733.49
357.56 K, 94780 kPa, x1 = 0.4 | 785.51
357.56 K, 94780 kPa, x1 = 0.8992 | 785.51
357.56 K, 94830 kPa, x1 = 0.801 | 769.76
357.56 K, 99750 kPa, x1 = 0.4 | 788.61
357.56 K, 99750 kPa, x1 = 0.8992 | 788.61
357.56 K, 99810 kPa, x1 = 0.801 | 772.8
357.56 K, 99830 kPa, x1 = 0.492 | 739.34
357.56 K, 104780 kPa, x1 = 0.611 | 752.46
357.56 K, 104780 kPa, x1 = 0.801 | 775.76
357.56 K, 104810 kPa, x1 = 0.492 | 742.14
357.56 K, 109680 kPa, x1 = 0.4 | 794.58
357.56 K, 109680 kPa, x1 = 0.8992 | 794.58
